From ChEMBL document CHEMBL1201862, “PubChem BioAssay data set” (2004) come the findings set out here.

Structures are written as SMILES.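 Following 48 hours of exposure in 96-well plates, responses at five concentrations were used to interpolate endpoints linearly. GI50 is the concentration that inhibits growth by half.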 The source made the active and inactive calls. No stated cut-off is given here; in the data, active = GI50 up to about 1.1 µM and inactive = higher.

Among the test systems are 786-0; A549; ACHN; COLO 205; HCT-116; HCT-15; HL-60; K562; M14; MDA-MB-435; Malme-3M; NCI-H23; NCI-H522; OVCAR-8; SF-295; SK-OV-3; SR; SW-620.
Assay in all cases: inhibition of tumour cell growth, NCI panel, 48 h

For `Cc1ncc([N+](=O)[O-])n1CCNC(=O)Cn1c([N+](=O)[O-])cnc1C`, the GI50 with 786-0 is > 100 µM (inactive); in the assay on A549, > 100 µM (inactive); in the assay with ACHN, > 100 µM (inactive); in the assay on COLO 205, > 100 µM (inactive); in the assay with HCT-116 it was > 100 µM (inactive); with HCT-15, > 100 µM. For the same compound, the GI50 in the assay with HL-60, in the assay with K562, in the assay on M14, in the assay on MDA-MB-435, in the assay with Malme-3M and in the assay on NCI-H23 was > 100 µM (inactive) each time. In addition, the GI50 with NCI-H522, in the assay with OVCAR-8, with SF-295, in the assay on SK-OV-3, with SR and in the assay on SW-620 was > 100 µM (inactive) in each case.
Take `CCN1CN(c2ccccc2)C2(CCN(CC3COc4ccccc4O3)CC2)C1=O` (centres undefined): the GI50 in the assay with 786-0 was 47.9 µM (inactive); with A549, 36.6 µM (inactive); with ACHN, 23.1 µM (inactive); in the assay with COLO 205, 15.7 µM (inactive); in the assay with HCT-116, 17.6 µM (inactive); in the assay on HCT-15, 20.5 µM. The GI50 in the assay on HL-60 was 16.1 µM (inactive); in the assay with K562, 37.9 µM (inactive); in the assay with M14, 2.21 µM (inactive); in the assay with MDA-MB-435, 23.3 µM (inactive); in the assay with Malme-3M, 16.9 µM (inactive); in the assay on NCI-H23 it was 40.6 µM (inactive). The GI50 was 18 µM (inactive) with NCI-H522; 34.7 µM (inactive) with OVCAR-8; 39.9 µM (inactive) in the assay on SF-295; 28.6 µM (inactive) with SK-OV-3; 5.13 µM (inactive) with SR; 47.8 µM (inactive) in the assay on SW-620.
`CCCCCCCCCCCCCCCCCCOCC(CCP(=O)(CP(=O)(O)O)Oc1ccccc1)OCCCCCCCCCCCCCCCCCC` (centres undefined): the GI50 in the assay with 786-0 was > 100 µM (inactive); with A549, > 100 µM (inactive); in the assay with ACHN, > 100 µM (inactive); in the assay on COLO 205, > 100 µM (inactive); with HCT-116, > 100 µM (inactive); in the assay on HCT-15, > 100 µM. In addition, the GI50 with HL-60, with K562, in the assay on M14, with MDA-MB-435, with Malme-3M and with NCI-H23 was > 100 µM (inactive) throughout. Moreover, the GI50 in the assay on NCI-H522, in the assay with OVCAR-8, in the assay with SF-295, with SK-OV-3, with SR and with SW-620 was > 100 µM (inactive) in each case.
Consider `COC(=O)[C@]1(c2cc3ccccc3[nH]2)CC2CNC1C1OC(C)(C)OC21` (some centres undefined), for which the GI50 with 786-0 is > 100 µM (inactive); with A549, > 100 µM (inactive); in the assay with ACHN it was > 100 µM (inactive); in the assay on COLO 205, > 100 µM (inactive); in the assay with HCT-116, > 100 µM (inactive); in the assay on HCT-15, > 100 µM. Also, the GI50 was > 100 µM (inactive) in the assay on HL-60; 73.6 µM (inactive) with K562; > 100 µM (inactive) with M14; 84.5 µM (inactive) in the assay on MDA-MB-435; > 100 µM (inactive) with Malme-3M; > 100 µM (inactive) in the assay on NCI-H23. The GI50 in the assay on NCI-H522 was > 100 µM (inactive); in the assay with OVCAR-8 it was > 100 µM (inactive); with SF-295 it was > 100 µM (inactive); with SK-OV-3, > 100 µM (inactive); in the assay on SR it was 47.9 µM (inactive); in the assay on SW-620 it was > 100 µM (inactive).
As for `Cc1nc(N)sc1/N=N/c1ccccc1Br`, the GI50 was 36.6 µM (inactive) in the assay on 786-0; > 53.7 µM (inactive) with A549; 43.1 µM (inactive) in the assay on ACHN; > 54.7 µM (inactive) in the assay with COLO 205; 33.2 µM (inactive) with HCT-116; 33.7 µM in the assay with HCT-15. In addition, the GI50 with HL-60 is > 42.5 µM (inactive); with K562 it was > 65.9 µM (inactive); with M14, 37.7 µM (inactive); in the assay with MDA-MB-435, 24.3 µM (inactive); with Malme-3M it was 26.2 µM (inactive); in the assay with NCI-H23 it was 28.2 µM (inactive). Further, the GI50 in the assay with NCI-H522 is 14.2 µM (inactive); in the assay on OVCAR-8 it was > 54.3 µM (inactive); in the assay on SF-295, 44.9 µM (inactive); in the assay with SK-OV-3, > 57.7 µM (inactive); in the assay with SR it was 35.2 µM (inactive); in the assay with SW-620, > 53.1 µM (inactive).
In the case of `CC(C)/C(Cl)=N/OC(=O)Nc1cccc(C(F)(F)F)c1`, the GI50 was 2.52 µM (inactive) with 786-0; 19.3 µM (inactive) in the assay with A549; 1.69 µM (inactive) with ACHN; 2.07 µM (inactive) with COLO 205; 8.2 µM (inactive) in the assay on HCT-116; 1.82 µM in the assay with HCT-15. Further, the GI50 in the assay with HL-60 is 0.778 µM (active); in the assay with K562 it was 1.54 µM (inactive); with M14, 3.52 µM (inactive); in the assay with MDA-MB-435 it was 11.8 µM (inactive); in the assay on Malme-3M it was 1.6 µM (inactive); with NCI-H23 it was 14.5 µM (inactive). Besides, the GI50 in the assay on NCI-H522 was 0.14 µM (active); with OVCAR-8, 14.5 µM (inactive); with SF-295, 18.3 µM (inactive); in the assay with SK-OV-3, 17.7 µM (inactive); in the assay with SR it was 1.06 µM (active); with SW-620, 1.35 µM (inactive).
As to `C=C(CC[C@@H](C)[C@H]1CC[C@H]2[C@@H]3C[C@@H](O)[C@H]4C[C@@H](O)CC[C@]4(CO)[C@H]3CC[C@]12C)C(C)C`, the GI50 is 3.75 µM (inactive) with 786-0; 4.23 µM (inactive) in the assay with A549; 5.81 µM (inactive) with ACHN; 7.71 µM (inactive) in the assay with COLO 205; 2.9 µM (inactive) in the assay with HCT-116; 2.83 µM in the assay on HCT-15. Besides, the GI50 is 6.34 µM (inactive) in the assay on HL-60; 1.49 µM (inactive) with K562; 6.97 µM (inactive) in the assay with M14; 7.45 µM (inactive) in the assay on MDA-MB-435; 6.49 µM (inactive) in the assay on Malme-3M; 5.75 µM (inactive) with NCI-H23. Moreover, the GI50 was 5.24 µM (inactive) in the assay with NCI-H522; 5.47 µM (inactive) with OVCAR-8; 9.12 µM (inactive) in the assay on SF-295; 9.1 µM (inactive) with SK-OV-3; 2.71 µM (inactive) in the assay on SR; 5.98 µM (inactive) in the assay on SW-620.
Take `CC(Oc1ccccc1Cl)C(=O)NN1C(=O)CC(=O)N(c2ccccc2)C1=S` (centres undefined): the GI50 is 94.8 µM (inactive) in the assay on 786-0; 41.1 µM (inactive) in the assay on A549; 38.3 µM (inactive) in the assay on ACHN; 32.2 µM (inactive) with COLO 205; 34.9 µM (inactive) in the assay with HCT-116; 38 µM in the assay with HCT-15. In addition, the GI50 is 18.7 µM (inactive) in the assay on HL-60; 33.7 µM (inactive) in the assay on K562; 59 µM (inactive) with M14; 42.6 µM (inactive) in the assay with MDA-MB-435; > 100 µM (inactive) in the assay on Malme-3M; 38.1 µM (inactive) in the assay with NCI-H23. The GI50 with NCI-H522 is 37 µM (inactive); with OVCAR-8, 41.4 µM (inactive); in the assay on SF-295 it was 39.1 µM (inactive); in the assay on SK-OV-3 it was 51.5 µM (inactive); with SR, 33.3 µM (inactive); with SW-620, 55.7 µM (inactive).
Take `Nc1nc(Cl)cc(NCC2(CO)CC(CCCc3ccccc3)C2)n1` (centres undefined): the GI50 is > 81.7 µM (inactive) in the assay with 786-0; 14.7 µM (inactive) in the assay on A549; > 41.8 µM (inactive) in the assay with ACHN; > 100 µM (inactive) in the assay with COLO 205; > 100 µM in the assay on HCT-15; > 35.1 µM (inactive) with HL-60. Further, the GI50 in the assay on K562 was 2.11 µM (inactive); in the assay on M14, > 100 µM (inactive); in the assay on MDA-MB-435, > 100 µM (inactive); with Malme-3M, > 100 µM (inactive); in the assay with NCI-H522, > 68.7 µM (inactive); in the assay on OVCAR-8, > 72.1 µM (inactive). Further, the GI50 is > 33.2 µM (inactive) with SF-295, 41.4 µM (inactive) in the assay on SK-OV-3, 1 µM (active) in the assay on SR and > 100 µM (inactive) with SW-620.
On to `O=C1CN(c2ccccc2)C(=O)CN1NCNN1CC(=O)N(c2ccccc2)CC1=O`, for which the GI50 is > 100 µM (inactive) with 786-0; > 100 µM (inactive) with A549; > 100 µM (inactive) in the assay with ACHN; > 100 µM (inactive) in the assay with COLO 205; > 100 µM (inactive) with HCT-116; > 100 µM with HCT-15. Moreover, the GI50 is > 100 µM (inactive) with HL-60; > 100 µM (inactive) in the assay with M14; > 100 µM (inactive) with MDA-MB-435; > 100 µM (inactive) in the assay on Malme-3M; 58.5 µM (inactive) in the assay on NCI-H23; > 100 µM (inactive) in the assay on NCI-H522. The GI50 in the assay with OVCAR-8, in the assay with SF-295, with SK-OV-3, with SR and with SW-620 was > 100 µM (inactive) throughout.
`c1ccc2c(c1)Sc1nccc3ccnc-2c13`: the GI50 was 80.4 µM (inactive) in the assay on 786-0; 13.8 µM (inactive) in the assay on ACHN; 48.3 µM (inactive) in the assay with COLO 205; 27.4 µM (inactive) with HCT-116; > 10 µM in the assay with HCT-15; 27.8 µM (inactive) in the assay with HL-60. For the same compound, the GI50 in the assay on K562 is 71.3 µM (inactive); with M14 it was 79.1 µM (inactive); with MDA-MB-435, 39.5 µM (inactive); in the assay with Malme-3M, 31.6 µM (inactive); in the assay with NCI-H23, 36.8 µM (inactive); with NCI-H522, 21.9 µM (inactive). Further, the GI50 in the assay on OVCAR-8 is 21.9 µM (inactive); with SF-295 it was 33.3 µM (inactive); in the assay with SK-OV-3, > 100 µM (inactive); with SR, 11.9 µM (inactive); with SW-620, 19.3 µM (inactive).
